Measured values: patent publication US6066484A, “Purine nucleosidase” (Suntory Limited, priority 1996, dated 2000)
“Also recorded” adds a separate entry of the source.

What was measured:
Type in all cases: biochemical, Ochrobactrum anthropi
[1] = test system: purine nucleosidase; experiment: Substrate specificity of purine nucleosidase by thin-layer chromatography; parameters: key to Relative activity: -: not reacted; +: <10%; ++: <31%; +++: <50%; ++++: >50%; details: for Relative activity: thin-layer chromatography
Protocol: (§1) The reaction solution (200 μl) contained 0.5 mM of adenosine or inosine or 0.25 mM of guanosine as the substrate, 50 mM of acetate buffer at pH 4.5 and a sufficient amount of enzyme. The reaction was initiated by addition of the enzyme, and the reaction was conducted at 50° C. for 5 minutes. The reaction was terminated by addition of 20 μl of 15% perchloric acid, and after centrifugation (35,000 rpm, 10 min) the supernatant was analyzed qualitatively by thin-layer chromatography (TLC) and quantitatively by high-performance liquid chromatography. The analysis methods were as follows.
(1) Thin-layer chromatography
Plate: Kieselgel 60F254 (Merk)
Developing solution: n-butanol/isopropanol/H2 O/NH4 OH=1:7:2:0.2 (v/v/v/v) (for adenosine and guanosine substrates), n-butanol/acetic acid/H2 O=5:1:1 (v/v/v) (for inosine substrate)
The substrate specificity of the purine nucleosidase was determined by thin-layer chromatography (TLC).
(§2) The specific activity was measured under conditions of 50° C., pH 4.5. The Km and Vmax were measured under conditions of 30° C., pH 4.5. The relative activity was expressed according to the following measurement method.

[2] = test system: purine nucleosidase; experiment: Effect of inhibitors on purine nucleosidase; details: 1 mM inhibitor; for Relative activity: pH 4.5, 30° C., 20 minutes, not added = 100.0
Protocol: as §1
The activity was measured after adding 1 mM of different inhibitors to the activity measurement solution. The reaction was conducted at pH 4.5, 30° C. for 20 minutes.

[3] = test system: purine nucleosidase; experiment: Effect of metal ions on purine nucleosidase; details: for Inhibition or activation of purine nucleosidase by metal ions (in words): 1 mM metal ion; for Relative activity: 1 mM metal, pH 4.5, 30° C., 40 minutes, not added = 100.0
Protocol: as §1
Various metal ions were added to the activity measuring solution in an amount of 1 mM to measure the activity. The reaction was conducted at pH 4.5, 30° C. for 40 minutes.

[4] = test system: Active fraction 2 (purine nucleosidase activity); experiment: Purine nucleosidase activity of active fraction 2 (1st DEAE-Sephacel)
[5] = test system: Active fraction 1 (purine nucleosidase activity); experiment: Purine nucleosidase activity of active fraction 1 (1st DEAE-Sephacel)
Protocol: After suspending 20 g of the wet cells in 40 ml of 10 mM Tris-HCl buffer solution (pH 7.4) (hereunder referred to as "buffer"), they were disrupted in a Dynamill at 4° C. for 10 minutes. After filtering the disrupted cell suspension it was centrifuged (10,000 rpm, 60 min) and the supernatant was used as a cell-free extract. The cell-free extract (250 ml) was dialyzed for 12 hours against 5 L of buffer and then applied to a DEAE-Sephacel column (3×30 cm, 200 ml) which had been equilibrized with the buffer. The adsorbed protein was eluted with an NaCl concentration gradient from 0 to 1.0 M and the active fractions were recovered.
The purine nucleosidase activity at this time was split into two peaks (FIG. 1). Fraction nos. 46 to 69 were collected as the first active fraction and fraction nos. 85 to 101 were collected as the second active fraction.
as §1

[6] = test system: purine nucleosidase; experiment: Specific activity, Km and Vmax of purine nucleosidase; details: pH 4.5
Protocol: as §1
(2) High-performance liquid chromatography
Eluent: 0.1 M sodium chlorate tetrahydrate, 0.1% (v/v) phosphoric acid
as §2

| Molecule | Relative activity [1] | Relative activity [3] | also measured |
| --- | --- | --- | --- |
| 2'-chloroadenosine | ++++ (>50%) |  |  |
| 5'-bromouridine | - |  |  |
| Nc1ncnc2c1ncn2[C@@H]1O[C@H](CO)[C@@H](O)[C@H]1OP(=O)(O)O [2'-AMP, 2'-adenosine monophosphate] | ++ (<31%) |  |  |
| Nc1ccn([C@@H]2O[C@H](CO)[C@@H](O)[C@H]2OP(=O)(O)O)c(=O)n1 [2'-CMP] | + (<10%) |  |  |
| O=c1[nH]cnc2c1ncn2[C@@H]1O[C@H](CO)[C@@H](O)[C@H]1OP(=O)(O)O [2'-IMP] | - |  |  |
| Nc1ncnc2c1ncn2[C@H]1C[C@H](O)[C@@H](CO)O1 [2'-deoxyadenosine] | ++ (<31%) |  |  |
| O=c1ccn([C@H]2C[C@H](O)[C@@H](CO)O2)c(=O)[nH]1 [2'-deoxyuridine] | - |  |  |
| Nc1ncnc2c1ncn2[C@@H]1O[C@H](CO)[C@@H](OP(=O)(O)O)[C@H]1O [3'-AMP, 3'-adenosine monophosphate] | ++ (<31%) |  |  |
| Nc1ncnc2c1ncn2[C@@H]1O[C@H](COP(=O)(O)O)[C@@H](O)[C@H]1O [5'-AMP, 5'-adenosine monophosphate] | ++ (<31%) |  |  |
| Nc1ccn([C@@H]2O[C@H](COP(=O)(O)O)[C@@H](O)[C@H]2O)c(=O)n1 [5'-CMP] | - |  |  |
| Nc1nc2c(ncn2[C@@H]2O[C@H](COP(=O)(O)O)[C@@H](O)[C@H]2O)c(=O)[nH]1 [5'-GMP, 5'-guanosine monophosphate] | + (<10%) |  |  |
| O=c1[nH]cnc2c1ncn2[C@@H]1O[C@H](COP(=O)(O)OP(=O)(O)O)[C@@H](O)[C@H]1O [5'-IDP] | - |  |  |
| O=c1ccn([C@@H]2O[C@H](COP(=O)(O)O)[C@@H](O)[C@H]2O)c(=O)[nH]1 [5'-UMP] | - |  |  |
| O=c1[nH]c(=O)c2ncn([C@@H]3O[C@H](COP(=O)(O)O)[C@@H](O)[C@H]3O)c2[nH]1 [5'-XMP] | + (<10%) |  |  |
| Oc1cccc2cccnc12 [8-hydroxyquinoline] |  |  | Relative activity [2]: 8.5% |
| O=S(=O)([O-])[O-].[Ag+].[Ag+] [Ag2 SO4] |  | 31.6% | Inhibition or activation of purine nucleosidase by metal ions (in words) ([3]; listed as Ag^+): Inhibition occurred; also recorded: Inhibited |
| [Cl][Al]([Cl])[Cl] [AlCl3] |  | 73.6% |  |
| [Ba+2].[Cl-].[Cl-] [BaCl2] |  | 86.1% |  |
| O=S(=O)([O-])[O-].[Be+2] [BeSO4] |  | 88.9% |  |
| [Ca+2].[Cl-].[Cl-] [CaCl2] |  | 101.7% |  |
| [Cl][Cd][Cl] [CdCl2] |  | 124.9% |  |

| Molecule | Relative activity [1] | Relative activity [3] | also measured |
| --- | --- | --- | --- |
| [Cl-].[Cl-].[Co+2] [CoCl2] |  | 82.9% |  |
| [Cl-].[Cs+] [CsCl] |  | 106.9% |  |
| O=S(=O)([O-])[O-].[Cu+2] [CuSO4] |  | 42.7% | Inhibition or activation of purine nucleosidase by metal ions (in words) ([3]; listed as Cu^2+): Inhibition occurred; also recorded: Inhibited |
| O=C(O)c1cc(SSc2ccc([N+](=O)[O-])c(C(=O)O)c2)ccc1[N+](=O)[O-] [DTNB, 5,5'-dithiobis(2-nitrobenzoic acid)] |  |  | Inhibition of purine nucleosidase (in words) [2]: Inhibition occurred; also recorded: inhibited; Relative activity [2]: 37.4% |
| O=C(O)CN(CCN(CC(=O)O)CC(=O)O)CC(=O)O [EDTA-Na2] |  |  | Relative activity [2]: 54.4% |
| [Cl][Fe]([Cl])[Cl] [FeCl3] |  | 100.0% |  |
| O=S(=O)([O-])[O-].[Fe+2] [FeSO4] |  | 92.6% |  |
| [Cl][Hg][Cl] [HgCl2] |  | 39.4% | Inhibition or activation of purine nucleosidase by metal ions (in words) ([3]; listed as Hg^2+): Inhibition occurred; also recorded: Inhibited |
| [Cl-].[K+] [KCl] |  | 100.9% |  |
| [Cl-].[Li+] [LiCl] |  | 103.0% |  |
| [Cl-].[Cl-].[Mg+2] [MgCl2] |  | 91.6% |  |
| [Cl][Mn][Cl] [MnCl2] |  | 65.5% | Inhibition or activation of purine nucleosidase by metal ions (in words) ([3]; listed as Mn^2+): Inhibition occurred; also recorded: Inhibited |
| O=C1CCC(=O)N1Br [N-bromosuccimide] |  |  | Relative activity [2]: 113.7% |
| CCN1C(=O)C=CC1=O [N-ethylmaleimide] |  |  | Relative activity [2]: 107.9% |
| Cl.NO [NH2 OH·HCl] |  |  | Relative activity [2]: 106.6% |
| [Cl-].[Na+] [NaCl] |  | 93.3% |  |
| [Cl][Ni][Cl] [NiCl2] |  | 91.3% |  |
| [Cl][Pb][Cl] [PbCl2] |  | 111.0% |  |
| [Cl-].[Rb+] [RbCl] |  | 106.5% |  |
| [Cl][Sn][Cl] [SnCl2] |  | 113.2% |  |
| O=S(=O)([O-])[O-].[Zn+2] [ZnSO4] |  | 74.9% | Inhibition or activation of purine nucleosidase by metal ions (in words) ([3]; listed as Zn^2+): Inhibition occurred; also recorded: Inhibited |

| Molecule | Relative activity [1] | Relative activity [3] | also measured |
| --- | --- | --- | --- |
| Nc1ncnc2c1ncn2[C@@H]1O[C@H](CO)[C@@H](O)[C@H]1O [adenosine] | ++++ (>50%) |  | decomposition of purine nucleosides (in words) ([1]; pH 5.5 and 60° C.): capable of decomposing; Specific activity, Active fraction 2 ([4]; 30° C.): 0.59 µmol/min/mg; Specific activity, Active fraction 2 ([4]; 50° C.): 0.45 µmol/min/mg; Specific activity, Active fraction 1 ([5]; 30° C.): 0.70 µmol/min/mg; Specific activity, Active fraction 1 ([5]; 50° C.): 3.6 µmol/min/mg; Km ([6]; 30° C.): 17.1 µM; Vmax ([6]; 30° C.): 28.5 µmol/min/mg; Specific activity ([6]; 50° C.): 292 µmol/min/mg |
| Nc1ncnc2c1ncn2[C@@H]1O[C@H](CO)C[C@H]1O [cordycepin] | ++ (<31%) |  |  |
| Nc1ccn([C@@H]2O[C@H](CO)[C@@H](O)[C@H]2O)c(=O)n1 [cytidine] | - |  |  |
| NC(=O)c1ccc[n+]([C@@H]2O[C@H](COP(=O)([O-])OP(=O)(O)OC[C@H]3O[C@@H](n4cnc5c(=O)[nH]cnc54)[C@H](O)[C@@H]3O)[C@@H](O)[C@H]2O)c1 [deamino NAD] | - |  |  |
| O=C(O)CI [iodoacetic acid] |  |  | Relative activity [2]: 99.4% |
| c1cnc2c(c1)ccc1cccnc12 [o-phenanthroline] |  |  | Relative activity [2]: 78.3% |
| O=C(O)c1cc[c]([Hg][Cl])cc1 [p-CMB] |  |  | Relative activity [2]: 80.2% |
| NNc1ccccc1 [phenylhydrazine] |  |  | Relative activity [2]: 100.4% |
| O=c1[nH]cc([C@@H]2O[C@H](CO)[C@@H](O)[C@H]2O)c(=O)[nH]1 [pseudouridine] | - |  |  |
| NNC(N)=O [semicarbazide] |  |  | Relative activity [2]: 103.4% |
| O=[As]([O-])([O-])O.[Na+].[Na+] [sodium arsenate] |  |  | Relative activity [2]: 69.4% |
| [N-]=[N+]=[N-] [sodium azide] |  |  | Inhibition of purine nucleosidase (in words) [2]: Inhibition occurred; also recorded: inhibited; Relative activity [2]: 72.9% |
| [F-].[Na+] [sodium fluoride] |  |  | Inhibition of purine nucleosidase (in words) [2]: Inhibition occurred; also recorded: inhibited; Relative activity [2]: 62.2% |
| O=[Se](O)O [sodium selenite] |  |  | Inhibition of purine nucleosidase (in words) [2]: Inhibition occurred; also recorded: inhibited |
| Cc1cn([C@H]2C[C@H](O)[C@@H](CO)O2)c(=O)[nH]c1=O [thymidine] | - |  |  |
| O=c1ccn([C@@H]2O[C@H](CO)[C@@H](O)[C@H]2O)c(=O)[nH]1 [uridine] | - |  |  |
| NC(=O)c1ccc[n+]([C@@H]2O[C@H](COP(=O)([O-])OP(=O)(O)OC[C@H]3O[C@@H](n4cnc5c(N)ncnc54)[C@H](O)[C@@H]3O)[C@@H](O)[C@H]2O)c1 [β-NAD, β-nicotinamide adenine dinucleotide] | + (<10%) |  |  |
| NC(=O)c1ccc[n+]([C@@H]2O[C@H](COP(=O)([O-])OP(=O)(O)OC[C@H]3O[C@@H](n4cnc5c(N)ncnc54)[C@H](OP(=O)(O)O)[C@@H]3O)[C@@H](O)[C@H]2O)c1 [β-NADP] | - |  |  |
| NC(=O)c1ccc[n+]([C@@H]2O[C@H](COP(=O)([O-])O)[C@@H](O)[C@H]2O)c1 [β-NMN] | - |  |  |
